Assay results as given in US20230056057A1, “HERBICIDE CO[…] MONOETHANOLAMINE SALT AND A PPO-INHIBITOR” (MONSANTO TECHNOLOGY LLC, priority 2020, published 2023).
Structures can show the parent of a compound that is named as a salt.

crystallization at higher loadings (higher loadings)	tendency to salt out (at higher concentrations, compared to the dicamba DGA salt)	Structure (SMILES)
crystallizes out		COc1c(Cl)ccc(Cl)c1C(=O)O.NCCOCCO [dicamba DGA salt, diglycolamine (DGA) salt of dicamba]
	less tendency to salt out	COc1c(Cl)ccc(Cl)c1C(=O)O [dicamba EA salt, dicamba monoethanolamine salt]
